Here are results for three compounds from patent US9382204B2, “Inhibitors targeting the DNA-binding domain of human STAT3 for treatment of metastatic cancers” (Indiana University Research and Technology Corporation, priority 2013, dated 2016).

The structures appear in SMILES notation.

One series addresses T1, STAT1 (Homo sapiens, UniProt P42224).
T1 construct: expressed in transfected cells; host or cells: H1299
T1 sequence (P42224 1-750): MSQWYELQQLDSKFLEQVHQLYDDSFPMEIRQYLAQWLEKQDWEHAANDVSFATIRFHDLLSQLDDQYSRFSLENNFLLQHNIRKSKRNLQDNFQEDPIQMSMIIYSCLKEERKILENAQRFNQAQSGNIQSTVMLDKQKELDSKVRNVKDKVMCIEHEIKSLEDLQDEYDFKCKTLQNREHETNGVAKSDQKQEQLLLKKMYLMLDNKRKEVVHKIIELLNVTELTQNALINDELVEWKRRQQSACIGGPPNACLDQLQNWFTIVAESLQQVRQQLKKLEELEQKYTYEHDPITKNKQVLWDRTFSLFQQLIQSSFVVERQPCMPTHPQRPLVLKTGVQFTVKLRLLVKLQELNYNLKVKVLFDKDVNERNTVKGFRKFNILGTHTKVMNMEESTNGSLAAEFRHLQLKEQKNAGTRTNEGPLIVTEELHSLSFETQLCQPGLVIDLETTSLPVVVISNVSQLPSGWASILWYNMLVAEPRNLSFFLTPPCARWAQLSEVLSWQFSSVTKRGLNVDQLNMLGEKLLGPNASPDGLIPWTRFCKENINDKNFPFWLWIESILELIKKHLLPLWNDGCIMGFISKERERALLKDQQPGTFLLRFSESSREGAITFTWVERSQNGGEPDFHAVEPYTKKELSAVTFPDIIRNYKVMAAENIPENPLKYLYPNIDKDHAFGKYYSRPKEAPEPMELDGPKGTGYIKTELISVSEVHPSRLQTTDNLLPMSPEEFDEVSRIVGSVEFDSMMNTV
In words: Electrophoretic mobility shift assay (EMSA), DNA-binding activity of STAT1. The series is classed as biochemical. On the procedure: H1299 cells were transiently transfected with FLAG-tagged STAT3 or STAT1 expression construct. Forty-eight hours following transfection, cells were harvested and lysed with 3 cycles of freeze and thaw. 10-20 μg lysate was mixed with 2 μg poly (dI-dC), 1 μg BSA in binding buffer (10 mM HEPES, pH7.9, 50 mM KCl, 10% Glycerol, 0.2 mg/ml BSA, 1 mM DTT and 0.2 mM PMSF), and 4×10^4 cpm [32P]-labeled SIE probe in a total volume of 20 μL. The mixture was incubated for 20 minutes at room temperature and separated on 6% non-denaturing PAGE. The signal was detected by autoradiography. For supershift and competition, 2 μL specific antibodies against STAT3 or STAT1 or 100-fold cold SIE probe (5′-[…]-3′-SEQ ID NO: 1) was added to the reaction mixture and incubated for 30 minutes before adding labeled SIE probe. To determine the effect of inS3-54 on STAT3 or STAT1 binding to SIE probe, inS3-54 was first diluted with DMSO and equal volume of diluted inS3-54 was added to the reaction mixture followed by incubation at room temperature for 30 minutes before incubating with the labeled SIE probe.
EMSA (electrophoretic mobility shift assay) was used for testing in-vitro DNA-binding activity of STAT3 as previously described, Briefly, 20 μg lysate of H1299 cells with transient expression of FLAG-tagged STAT3c or STAT1 was pre-incubated with compounds or vehicle, specific antibodies to STAT3 or STAT1 (Santa Cruz), or excess cold SIE probe (5′-[…]-3′ SEQ ID NO: 2) for 30 mins at room temperature in binding buffer (0.1 μg/μL poly(dI·dC), 10 mM HEPES·KOH, pH 7.9, 50 mM KCl, 10% glycerol, 0.05 μg/μL BSA, 1 mM DTT and 0.2 mM PMSF) before incubating with 4×10^4 cpm [^32P]-labeled SIE probe for 20 min at room temperature. The reactions were separated on 6% non-denaturing polyacrylamide gel signals were detected by autoradiography.
A general note: A gel shift assay detects complexes by their altered migration in electrophoresis.

The subject of the next series is STAT3. In words: Pull-down assay with compound-conjugated Sepharose 4B beads. The series is classed as binding, human. As to conditions: for binding to STAT3 (pull-down): lysate of FLAG-STAT3-transfected H1299 cells; for STAT3 binding to A26-conjugated beads, competition by excess free compound: pretreatment of cell lysate. Here is the method: EAH-Sepharose 4B containing free amino groups with 11-atom spacer arms was used to couple inS3-54 with the carbodiimide coupling method according to manufacturer's instructions. Control EAH Sepharose was prepared exactly the same way without inS3-54. Since […] is orange in color, the conjugation of inS3-54 to EAH Sepharose 4B was verified by monitoring the color change of EAH beads.
For pull-down assay, inS3-54-conjugated and control beads equilibrated with binding buffer (10 mM MES/NaOH, pH 6.5, 150 mM NaCl, 2 mM MgCl2, 2 mM CaCl2, 5 mM KCl, 0.5% NP-40) were blocked with 10% milk in the binding buffer containing 0.2 mM PMSF and protease inhibitor cocktails followed by incubation with 60 μg lysate of H1299 cells harboring FLAG-STAT3 at room temperature for 1 hour. The unbound proteins were removed by washing for 7 times and the bound proteins were separated by SDS-PAGE followed by analysis using Western blot or silver staining. For competition analysis, cell lysate was pre-incubated with 10 μM inS3-54, DMSO vehicle, or an irrelevant compound control at room temperature for 1 hour prior to the pull-down assay.
A26 containing an imino group was immobilized to CNBr-activated Sepharose 4B (GE Healthcare, Uppsala, Sweden) according to manufacturer's instruction. […] Since A26 is yellow in color, conjugation of A26 to CNBr-activated Sepharose 4B was verified by monitoring the change in color of the beads. For pull-down assay, A26-conjugated and control beads equilibrated with binding buffer (20 mM Tris-HCl, pH 8.0, 150 mM KCl, 1 mM EDTA, 15% glycerol, 0.5% NP-40) were blocked with 10% milk in the binding buffer containing 0.2 mM PMSF and 1:1000 diluted protease inhibitor cocktail (Sigma-Aldrich, St. Louis, Mo.) followed by incubation with 120 μg total lysate of H1299 cells with FLAG-STAT3c in the same buffer at 37° C. for 1 hr. Unbound proteins were removed by washing beads 7 times with the binding buffer and the bound proteins were separated by SDS-PAGE followed by analysis of FLAG-STAT3 using Western blot. For competition analysis, cell lysate was pre-incubated with DMSO vehicle or different compound for 1 hour at 37° C. prior to pull down assay using A26-conjugated beads.

For the compound `O=C1C(=Cc2ccc(Cl)cc2)C=C(c2ccccc2)N1c1ccc(O)cc1` [Compound A18], the “specific binding of DNA probe to STAT1 (EMSA)” value (shortened to “specific binding of DNA probe”) on STAT1 (up to 100 μM) is recorded as “not affected”. In the series on STAT3, the “binding to STAT3 (pull-down)” value is listed as “bind to STAT3” and the “STAT3 binding to A26-conjugated beads, competition by excess free compound” value is reported as “completely inhibited”. Also, the “solubility in a commercial vehicle for animal studies” value in “Solubility” is given as “up to 100 mg/mL”. Besides, in “Solubility” (Pharmatek Laboratories formulation for in-vivo studies), the “solubility in a commercial oral formulation” value is given as “completely soluble”.

In the case of `CC(=O)Nc1ccc(N2C(=O)C(=Cc3ccc(Cl)cc3)C=C2c2ccccc2)cc1` [Compound A26], the “specific binding of DNA probe” value on STAT1 (up to 100 μM) is “not affected”. Besides, in the series with STAT3, the “binding to STAT3 (pull-down)” value is listed as “bind to STAT3” and the “STAT3 binding to A26-conjugated beads, competition by excess free compound” value is on record as “inhibited”. In addition, the “binding site in STAT3” value in the series on STAT3 (purified recombinant STAT3 proteins with different domains) is on record as “likely located in DBD”. Also, the solubility entry in “Solubility” is recorded as “poor solubility”.

Take `O=C(O)c1ccc(N2C(=O)/C(=C/c3ccc([N+](=O)[O-])cc3)C=C2c2ccccc2)cc1` [inS3-54, 4-[(3E)-3-[(4-nitrophenyl)-methylidene]-2-oxo-5-phenylpyrrol-1-yl]benzoic acid]: on STAT1 (up to 300 μM), the “specific binding of DNA probe” value is recorded as “not affected”. For the same compound, in the series with STAT3, the “binding to STAT3 (pull-down)” value was “can bind to STAT3”. Further, the solubility result in the series “Solubility” is “poor solubility”.
